# Source: patent US20060069132A1, “Azolecarboxamide herbicides” (priority 2004, published 2006)
# Where two headings read alike, the source gives them in different places.
# Assays:
# [1] = test system: johnsongrass; assay: Test C pre-/postemergence herbicide test; format: in vivo, Sorghum halepense
# Summary of the method: (§1)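 Emerged plants at the 1- to 4-leaf stage (2–18 cm), or freshly planted seeds, received test chemicals in a non-phytotoxic solvent mixture with surfactant. Response was visually scored against controls after 12 to 14 days in the greenhouse, on a 0 (no effect) to 100 (complete control) scale.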
# [2] = test system: barnyardgrass; assay: Test A pre-/postemergence herbicide test; format: in vivo, Echinochloa crus-galli; conditions: Echinochloa crus-galli, 240 h; for pest or weed control at 500 g/ha: 500 g ai/ha; for pest or weed control at 2000 g/ha: 2000 g ai/ha
# Summary of the method: (§2)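 Both application timings were run together: directed soil spray over freshly planted seeds in sandy loam, and runoff spray onto 2–10 cm seedlings. Evaluation after ~10 days in greenhouse used a 0–100 visual scale versus untreated controls.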
# [3] = test system: woolly cupgrass; assay: Test C pre-/postemergence herbicide test; format: in vivo, Eriochloa villosa
# Summary of the method: as §1
# [4] = test system: common (oilseed) sunflower; assay: Test C pre-/postemergence herbicide test; format: in vivo, Helianthus annuus
# Summary of the method: as §1
# [5] = test system: corn; assay: Test C pre-/postemergence herbicide test; format: in vivo, Zea mays
# Summary of the method: as §1
# [6] = test system: morningglory; assay: Test A pre-/postemergence herbicide test; format: in vivo, Ipomoea spp.; conditions: Ipomoea, 240 h; for pest or weed control at 500 g/ha: 500 g ai/ha; for pest or weed control at 2000 g/ha: 2000 g ai/ha
# Summary of the method: as §2
# [7] = test system: eastern black nightshade; assay: Test C pre-/postemergence herbicide test; format: in vivo, Solanum ptycanthum
# Summary of the method: as §1
# [8] = test system: velvetleaf; assay: Test C pre-/postemergence herbicide test; format: in vivo, Abutilon theophrasti
# Summary of the method: as §1
# [9] = test system: smallflower umbrella sedge; assay: Test C flooded paddy test; format: in vivo, Cyperus difformis; conditions: Cyperus difformis
# [10] = test system: Surinam grass; assay: Test C pre-/postemergence herbicide test; format: in vivo, Urochloa decumbens
# Summary of the method: as §1
# [11] = Preemergence, 500 g ai/ha, scale 0 to 100, 0 no effect, 100 complete control
# [12] = post-emergence, Postemergence, 0 to 100 scale, 0 no effect, 100 complete control, read-out: Plant response rating, Barnyardgrass
# [13] = post-emergence, Postemergence, 0 to 100 scale, 0 no effect, 100 complete control, read-out: Plant response rating, Morningglory
structure (smiles),measurement,setting,value
"CCn1nc(C(C)(C)C)cc1C(=O)Nc1cccc2c1CN(C)C2=O [Compound 55, N-(2,3-dihydro-2-methyl-1-oxo-1H-isoindol-4-yl)-3-(1,1-dimethylethyl)-1-ethyl-1H-pyrazole-5-carboxamide]","Plant response rating (0 = no effect, 100 = complete control), Johnsongrass","[1]; 62 g ai/ha, preemergence",0
same,Johnsongrass plant response rating,[1]; [11],100
same,pest or weed control at 125 g/ha,"[1]; Sorghum halepense, pre-emergence, 125 g ai/ha, scale 0 (no effect) to 100 (complete control), visual, 12 to 14 days, read-out: Plant response rating, Johnsongrass",75%
same,pest or weed control at 250 g/ha,"[1]; Sorghum halepense, pre-emergence, 250 g ai/ha, scale 0 to 100 (0 no effect, 100 complete control), visual, 12 to 14 days, read-out: Plant response rating, Johnsongrass",95%
same,pest or weed control at 500 g/ha,[2]; [12],90%
same,pest or weed control at 2000 g/ha,[2]; [12],100%
same,pest or weed control at 500 g/ha,"[2]; pre-emergence, Preemergence, visual rating, 0 to 100 scale (0 no effect, 100 complete control), read-out: Barnyardgrass plant response rating",80%
same,pest or weed control at 2000 g/ha,"[2]; pre-emergence, Preemergence, 0 to 100 scale, 0 no effect, 100 complete control, read-out: Barnyardgrass plant response rating",95%
same,"Plant response rating (0 = no effect, 100 = complete control), Cupgrass, Woolly","[3]; 62 g ai/ha, preemergence",0
same,pest or weed control at 125 g/ha,"[3]; Eriochloa villosa, pre-emergence, 312 h, 125 g ai/ha, scale 0 (no effect) to 100 (complete control), visual, 12 to 14 days, read-out: Plant response rating, Cupgrass, Woolly",25%
same,pest or weed control at 250 g/ha,"[3]; Eriochloa villosa, pre-emergence, 312 h, 250 g ai/ha, scale 0 to 100 (0 no effect, 100 complete control), visual, 12 to 14 days, read-out: Plant response rating, Cupgrass, Woolly",55%
same,"Cupgrass, Woolly plant response rating",[3]; [11],65
same,"Plant response rating (0 = no effect, 100 = complete control), Sunflower","[4]; 62 g ai/ha, preemergence",0
same,pest or weed control at 125 g/ha,"[4]; Helianthus annuus, pre-emergence, 125 g ai/ha, scale 0 (no effect) to 100 (complete control), visual, 12 to 14 days, read-out: Plant response rating, Sunflower",0%
same,pest or weed control at 250 g/ha,"[4]; Helianthus annuus, pre-emergence, 250 g ai/ha, scale 0 to 100 (0 no effect, 100 complete control), visual, 12 to 14 days, read-out: Plant response rating, Sunflower",0%
same,Sunflower plant response rating,[4]; [11],0
same,"Plant response rating (0 = no effect, 100 = complete control), Corn","[5]; 62 g ai/ha, preemergence",0
same,Corn plant response rating,[5]; [11],0
same,"Corn plant response rating (crop injury, 0 = no effect, 100 = complete kill) at 125 g/ha","[5]; Zea mays, pre-emergence, 312 h, 125 g ai/ha, scale 0 (no effect) to 100 (complete control), visual, 12 to 14 days",0%
same,"Corn plant response rating (crop injury, 0 = no effect, 100 = complete kill) at 250 g/ha","[5]; Zea mays, pre-emergence, 312 h, 250 g ai/ha, scale 0 to 100 (0 no effect, 100 complete control), visual, 12 to 14 days",0%
same,pest or weed control at 500 g/ha,[6]; [13],20%
same,pest or weed control at 2000 g/ha,[6]; [13],25%
same,pest or weed control at 500 g/ha,"[6]; pre-emergence, Preemergence, visual rating, 0 to 100 scale (0 no effect, 100 complete control), read-out: Morningglory plant response rating",5%
same,pest or weed control at 2000 g/ha,"[6]; pre-emergence, Preemergence, 0 to 100 scale, 0 no effect, 100 complete control, read-out: Morningglory plant response rating",20%
same,"Plant response rating (0 = no effect, 100 = complete control), Nightshade","[7]; 62 g ai/ha, preemergence",15
same,Nightshade plant response rating,[7]; [11],95
same,pest or weed control at 125 g/ha,"[7]; pre-emergence, 125 g ai/ha, scale 0 (no effect) to 100 (complete control), visual, 12 to 14 days, read-out: Plant response rating, Nightshade",60%
same,pest or weed control at 250 g/ha,"[7]; pre-emergence, 250 g ai/ha, scale 0 to 100 (0 no effect, 100 complete control), visual, 12 to 14 days, read-out: Plant response rating, Nightshade",90%
same,"Plant response rating (0 = no effect, 100 = complete control), Velvetleaf","[8]; 62 g ai/ha, preemergence",0
same,pest or weed control at 125 g/ha,"[8]; Abutilon theophrasti, pre-emergence, 125 g ai/ha, scale 0 (no effect) to 100 (complete control), visual, 12 to 14 days, read-out: Plant response rating, Velvetleaf",0%
same,pest or weed control at 250 g/ha,"[8]; Abutilon theophrasti, pre-emergence, 250 g ai/ha, scale 0 to 100 (0 no effect, 100 complete control), visual, 12 to 14 days, read-out: Plant response rating, Velvetleaf",15%
same,Velvetleaf plant response rating,[8]; [11],100
same,pest or weed control at 62 g/ha,"[9]; 62 g ai/ha, scale 0 to 100 (0 no effect, 100 complete control), read-out: Sedge, Umbrella plant response rating",0%
same,pest or weed control at 125 g/ha,"[9]; 125 g ai/ha, scale of 0 to 100, 0 is no effect, 100 is complete control, read-out: Sedge, Umbrella plant response rating",20%
same,pest or weed control at 250 g/ha,"[9]; 250 g ai/ha, scale of 0 to 100, 0 is no effect, 100 is complete control, read-out: Sedge, Umbrella plant response rating",75%
same,pest or weed control at 500 g/ha,"[9]; 500 g ai/ha, visual rating after 12 to 14 days, scale 0 to 100 (0 no effect, 100 complete control), read-out: Plant response rating, Sedge, Umbrella",80%
same,"Plant response rating (0 = no effect, 100 = complete control), Surinam Grass","[10]; 62 g ai/ha, preemergence",0
same,Surinam Grass plant response rating,[10]; [11],100
same,pest or weed control at 125 g/ha,"[10]; Urochloa decumbens, pre-emergence, 312 h, 125 g ai/ha, scale 0 (no effect) to 100 (complete control), visual, 12 to 14 days, read-out: Plant response rating, Surinam Grass",25%
same,pest or weed control at 250 g/ha,"[10]; Urochloa decumbens, pre-emergence, 312 h, 250 g ai/ha, scale 0 to 100 (0 no effect, 100 complete control), visual, 12 to 14 days, read-out: Plant response rating, Surinam Grass",65%
